The results in this text go back to ChEMBL document CHEMBL3991601, “The target landscape of clinical kinase drugs” (Science, 2017).

Activity calls are given as the source filed them.

Test [1] deals with Bone morphogenetic protein receptor type-1B (Homo sapiens, UniProt O00238).
Test [2] deals with ATP-dependent RNA helicase DDX3X (Homo sapiens, UniProt O00571).
In test [3] the target is Chromodomain-helicase-DNA-binding protein 4 (Homo sapiens, UniProt Q14839).
Test [4] addresses T1, Mitogen-activated protein kinase kinase kinase 2 (Homo sapiens, UniProt Q9Y2U5).
T1 sequence (Q9Y2U5 whole entry): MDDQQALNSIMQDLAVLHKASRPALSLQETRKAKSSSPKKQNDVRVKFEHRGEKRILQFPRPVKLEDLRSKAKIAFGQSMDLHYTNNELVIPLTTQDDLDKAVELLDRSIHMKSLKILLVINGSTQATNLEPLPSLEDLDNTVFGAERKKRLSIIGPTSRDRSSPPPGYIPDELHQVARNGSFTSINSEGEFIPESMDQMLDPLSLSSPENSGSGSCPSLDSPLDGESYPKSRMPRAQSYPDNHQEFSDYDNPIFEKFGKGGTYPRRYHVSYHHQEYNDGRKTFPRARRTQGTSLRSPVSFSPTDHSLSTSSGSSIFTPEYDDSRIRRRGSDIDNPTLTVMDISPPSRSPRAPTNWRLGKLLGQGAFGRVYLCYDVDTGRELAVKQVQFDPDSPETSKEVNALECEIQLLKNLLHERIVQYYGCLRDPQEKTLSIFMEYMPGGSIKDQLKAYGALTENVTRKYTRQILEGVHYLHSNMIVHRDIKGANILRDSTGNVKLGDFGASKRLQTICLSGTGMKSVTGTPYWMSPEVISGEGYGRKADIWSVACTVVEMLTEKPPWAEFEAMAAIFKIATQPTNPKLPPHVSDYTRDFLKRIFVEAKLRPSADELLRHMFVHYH

The target in test [5] is DNA topoisomerase 2-beta (Homo sapiens, UniProt Q02880).
Test [6] deals with T2, EKC/KEOPS complex subunit TP53RK (Homo sapiens, UniProt Q96S44).
T2 sequence (Q96S44 whole entry): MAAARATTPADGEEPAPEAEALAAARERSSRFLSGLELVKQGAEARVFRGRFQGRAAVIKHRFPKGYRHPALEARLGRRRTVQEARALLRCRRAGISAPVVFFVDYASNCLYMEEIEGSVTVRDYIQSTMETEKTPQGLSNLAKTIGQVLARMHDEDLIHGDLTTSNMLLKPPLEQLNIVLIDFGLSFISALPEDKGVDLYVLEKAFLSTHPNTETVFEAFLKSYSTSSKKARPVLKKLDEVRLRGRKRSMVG

Test [7] concerns the target T3, Glycogen phosphorylase, brain form (Homo sapiens, UniProt P11216).
T3 sequence (P11216 whole entry): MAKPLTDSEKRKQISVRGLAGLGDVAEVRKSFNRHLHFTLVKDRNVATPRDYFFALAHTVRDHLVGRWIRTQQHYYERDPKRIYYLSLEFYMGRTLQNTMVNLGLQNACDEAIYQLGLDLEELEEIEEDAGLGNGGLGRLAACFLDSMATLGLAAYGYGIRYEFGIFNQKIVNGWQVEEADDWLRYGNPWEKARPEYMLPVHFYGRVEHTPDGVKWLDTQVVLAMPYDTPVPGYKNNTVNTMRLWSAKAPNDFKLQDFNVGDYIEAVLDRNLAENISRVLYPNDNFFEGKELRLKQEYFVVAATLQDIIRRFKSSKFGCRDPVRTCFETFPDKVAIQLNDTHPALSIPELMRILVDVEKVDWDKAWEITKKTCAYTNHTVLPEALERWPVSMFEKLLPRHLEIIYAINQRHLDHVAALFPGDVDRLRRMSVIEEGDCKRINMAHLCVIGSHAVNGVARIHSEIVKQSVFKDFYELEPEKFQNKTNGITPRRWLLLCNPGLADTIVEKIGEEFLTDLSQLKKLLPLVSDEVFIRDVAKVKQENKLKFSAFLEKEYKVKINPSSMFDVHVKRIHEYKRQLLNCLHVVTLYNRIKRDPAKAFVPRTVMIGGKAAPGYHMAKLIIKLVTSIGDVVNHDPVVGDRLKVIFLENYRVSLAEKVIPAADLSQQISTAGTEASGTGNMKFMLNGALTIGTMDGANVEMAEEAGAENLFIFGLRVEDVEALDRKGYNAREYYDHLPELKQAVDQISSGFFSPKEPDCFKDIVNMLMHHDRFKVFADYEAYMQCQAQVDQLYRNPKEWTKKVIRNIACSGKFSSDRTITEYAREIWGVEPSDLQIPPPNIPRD

In test [8] the target is Serine/threonine-protein kinase/endoribonuclease IRE2 (Homo sapiens, UniProt Q76MJ5).
Test [9] deals with Mitogen-activated protein kinase kinase kinase kinase 1 (Homo sapiens, UniProt Q92918).
Test [10] addresses T4, Membrane-associated tyrosine- and threonine-specific cdc2-inhibitory kinase (Homo sapiens, UniProt Q99640).
T4 sequence (Q99640 whole entry): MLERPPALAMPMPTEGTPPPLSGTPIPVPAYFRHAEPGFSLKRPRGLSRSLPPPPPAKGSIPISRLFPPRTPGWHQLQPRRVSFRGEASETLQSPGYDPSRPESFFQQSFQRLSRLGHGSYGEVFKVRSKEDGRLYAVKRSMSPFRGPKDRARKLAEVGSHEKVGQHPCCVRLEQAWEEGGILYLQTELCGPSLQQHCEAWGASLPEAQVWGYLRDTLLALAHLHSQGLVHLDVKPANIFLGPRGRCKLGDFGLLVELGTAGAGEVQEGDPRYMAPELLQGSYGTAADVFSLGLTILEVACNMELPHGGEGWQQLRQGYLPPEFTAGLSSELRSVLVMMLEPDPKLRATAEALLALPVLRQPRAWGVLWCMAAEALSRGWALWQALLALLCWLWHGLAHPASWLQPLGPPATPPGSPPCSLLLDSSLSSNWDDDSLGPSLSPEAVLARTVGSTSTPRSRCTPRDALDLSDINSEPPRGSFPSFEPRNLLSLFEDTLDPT

Test [11] has as its target Tyrosine-protein kinase ABL2 (Homo sapiens, UniProt P42684).
Test [12] deals with Rho-associated protein kinase 2 (Homo sapiens, UniProt O75116).
Test [13] has as its target Casein kinase I isoform gamma-1 (Homo sapiens, UniProt Q9HCP0).
Note: in the data inactive means no Kd found up to 30 µM.

Chain of DNA topoisomerase 2-beta (Q02880 whole entry): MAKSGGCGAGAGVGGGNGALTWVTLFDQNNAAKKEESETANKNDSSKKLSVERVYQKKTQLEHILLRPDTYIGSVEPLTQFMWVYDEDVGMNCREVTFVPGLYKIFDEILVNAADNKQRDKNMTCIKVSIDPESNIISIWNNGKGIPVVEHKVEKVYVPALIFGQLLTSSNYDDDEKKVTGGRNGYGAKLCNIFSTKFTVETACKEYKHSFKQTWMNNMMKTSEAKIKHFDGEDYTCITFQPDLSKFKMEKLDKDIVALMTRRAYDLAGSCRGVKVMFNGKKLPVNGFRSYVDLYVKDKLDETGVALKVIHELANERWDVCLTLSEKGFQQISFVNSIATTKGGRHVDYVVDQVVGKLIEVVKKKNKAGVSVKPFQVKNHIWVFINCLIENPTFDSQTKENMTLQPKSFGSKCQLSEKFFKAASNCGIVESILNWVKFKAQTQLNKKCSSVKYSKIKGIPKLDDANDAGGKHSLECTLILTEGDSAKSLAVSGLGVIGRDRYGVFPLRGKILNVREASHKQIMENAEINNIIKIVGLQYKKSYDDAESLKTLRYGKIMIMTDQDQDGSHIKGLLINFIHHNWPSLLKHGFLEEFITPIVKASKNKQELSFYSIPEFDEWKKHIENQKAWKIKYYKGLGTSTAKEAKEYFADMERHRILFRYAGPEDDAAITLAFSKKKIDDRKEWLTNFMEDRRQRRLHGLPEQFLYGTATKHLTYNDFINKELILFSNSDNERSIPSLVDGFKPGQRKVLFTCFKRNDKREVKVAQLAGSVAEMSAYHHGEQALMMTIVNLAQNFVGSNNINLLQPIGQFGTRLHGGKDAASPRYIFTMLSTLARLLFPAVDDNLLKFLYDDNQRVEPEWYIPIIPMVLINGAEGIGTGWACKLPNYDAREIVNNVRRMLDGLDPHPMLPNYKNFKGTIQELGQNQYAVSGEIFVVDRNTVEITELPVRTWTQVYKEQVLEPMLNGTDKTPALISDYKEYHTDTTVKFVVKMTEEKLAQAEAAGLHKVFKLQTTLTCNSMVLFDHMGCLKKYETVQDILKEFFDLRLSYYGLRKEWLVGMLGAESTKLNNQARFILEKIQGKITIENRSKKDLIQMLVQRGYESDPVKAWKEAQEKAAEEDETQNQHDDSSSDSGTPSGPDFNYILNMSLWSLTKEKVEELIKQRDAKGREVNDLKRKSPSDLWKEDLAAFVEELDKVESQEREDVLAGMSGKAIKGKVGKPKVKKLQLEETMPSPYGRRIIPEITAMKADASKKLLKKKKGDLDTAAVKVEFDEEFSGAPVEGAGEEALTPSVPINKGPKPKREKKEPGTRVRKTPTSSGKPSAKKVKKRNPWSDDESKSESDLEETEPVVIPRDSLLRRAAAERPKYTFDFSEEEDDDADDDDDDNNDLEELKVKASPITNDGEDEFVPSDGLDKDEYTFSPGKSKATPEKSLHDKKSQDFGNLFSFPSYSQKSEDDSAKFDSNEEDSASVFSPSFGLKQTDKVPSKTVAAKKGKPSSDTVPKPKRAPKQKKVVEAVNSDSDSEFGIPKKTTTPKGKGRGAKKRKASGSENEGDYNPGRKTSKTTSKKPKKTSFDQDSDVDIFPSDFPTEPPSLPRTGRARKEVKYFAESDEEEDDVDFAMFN
Chain of Chromodomain-helicase-DNA-binding protein 4 (Q14839 whole entry): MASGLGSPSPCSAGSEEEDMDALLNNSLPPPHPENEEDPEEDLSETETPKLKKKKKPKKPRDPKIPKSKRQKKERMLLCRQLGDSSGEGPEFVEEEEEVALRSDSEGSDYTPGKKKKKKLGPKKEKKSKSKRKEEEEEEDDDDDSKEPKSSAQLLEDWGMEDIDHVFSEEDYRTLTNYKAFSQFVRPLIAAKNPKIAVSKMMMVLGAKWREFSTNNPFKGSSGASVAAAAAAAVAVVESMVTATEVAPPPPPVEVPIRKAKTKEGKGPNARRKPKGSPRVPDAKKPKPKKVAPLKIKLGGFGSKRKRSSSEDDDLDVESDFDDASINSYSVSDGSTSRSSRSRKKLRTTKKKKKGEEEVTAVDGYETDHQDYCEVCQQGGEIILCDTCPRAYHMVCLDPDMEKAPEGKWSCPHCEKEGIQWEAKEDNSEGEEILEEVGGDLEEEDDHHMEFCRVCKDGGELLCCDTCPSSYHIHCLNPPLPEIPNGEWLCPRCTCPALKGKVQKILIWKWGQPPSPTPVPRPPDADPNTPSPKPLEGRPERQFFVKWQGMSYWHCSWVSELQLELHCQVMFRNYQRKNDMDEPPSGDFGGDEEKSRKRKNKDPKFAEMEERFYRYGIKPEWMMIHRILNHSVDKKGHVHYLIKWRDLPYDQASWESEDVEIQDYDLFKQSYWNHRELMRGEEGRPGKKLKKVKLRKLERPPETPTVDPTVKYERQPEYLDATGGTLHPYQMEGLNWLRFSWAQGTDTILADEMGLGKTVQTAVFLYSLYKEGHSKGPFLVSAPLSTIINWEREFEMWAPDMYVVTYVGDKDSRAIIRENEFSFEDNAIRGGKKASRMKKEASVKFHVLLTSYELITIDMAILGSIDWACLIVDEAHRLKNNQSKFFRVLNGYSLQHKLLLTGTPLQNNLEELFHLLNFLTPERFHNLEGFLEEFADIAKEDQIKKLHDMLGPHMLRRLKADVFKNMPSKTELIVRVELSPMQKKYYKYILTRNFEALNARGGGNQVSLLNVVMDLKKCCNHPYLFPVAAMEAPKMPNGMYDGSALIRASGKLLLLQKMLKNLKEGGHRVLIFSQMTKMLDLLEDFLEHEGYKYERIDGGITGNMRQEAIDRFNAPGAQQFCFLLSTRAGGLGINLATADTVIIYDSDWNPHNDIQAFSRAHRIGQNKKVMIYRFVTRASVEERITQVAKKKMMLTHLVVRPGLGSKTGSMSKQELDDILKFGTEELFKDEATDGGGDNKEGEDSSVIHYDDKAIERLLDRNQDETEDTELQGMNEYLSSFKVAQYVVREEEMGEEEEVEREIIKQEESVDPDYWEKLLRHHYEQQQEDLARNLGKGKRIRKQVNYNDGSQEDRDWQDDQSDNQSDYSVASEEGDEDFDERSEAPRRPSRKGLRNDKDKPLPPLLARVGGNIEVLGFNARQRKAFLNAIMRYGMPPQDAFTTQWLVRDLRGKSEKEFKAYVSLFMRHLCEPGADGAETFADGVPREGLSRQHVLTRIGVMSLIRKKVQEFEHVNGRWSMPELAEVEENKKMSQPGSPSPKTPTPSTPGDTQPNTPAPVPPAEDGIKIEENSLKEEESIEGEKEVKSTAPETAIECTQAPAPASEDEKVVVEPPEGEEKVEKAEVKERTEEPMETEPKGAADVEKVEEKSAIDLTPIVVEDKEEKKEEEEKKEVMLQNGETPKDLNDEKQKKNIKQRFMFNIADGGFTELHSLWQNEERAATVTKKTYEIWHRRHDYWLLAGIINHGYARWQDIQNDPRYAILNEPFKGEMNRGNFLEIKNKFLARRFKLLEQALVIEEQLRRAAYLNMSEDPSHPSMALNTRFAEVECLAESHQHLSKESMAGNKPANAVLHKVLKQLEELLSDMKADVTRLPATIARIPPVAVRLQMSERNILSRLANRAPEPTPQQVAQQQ
Chain of ATP-dependent RNA helicase DDX3X (O00571 whole entry): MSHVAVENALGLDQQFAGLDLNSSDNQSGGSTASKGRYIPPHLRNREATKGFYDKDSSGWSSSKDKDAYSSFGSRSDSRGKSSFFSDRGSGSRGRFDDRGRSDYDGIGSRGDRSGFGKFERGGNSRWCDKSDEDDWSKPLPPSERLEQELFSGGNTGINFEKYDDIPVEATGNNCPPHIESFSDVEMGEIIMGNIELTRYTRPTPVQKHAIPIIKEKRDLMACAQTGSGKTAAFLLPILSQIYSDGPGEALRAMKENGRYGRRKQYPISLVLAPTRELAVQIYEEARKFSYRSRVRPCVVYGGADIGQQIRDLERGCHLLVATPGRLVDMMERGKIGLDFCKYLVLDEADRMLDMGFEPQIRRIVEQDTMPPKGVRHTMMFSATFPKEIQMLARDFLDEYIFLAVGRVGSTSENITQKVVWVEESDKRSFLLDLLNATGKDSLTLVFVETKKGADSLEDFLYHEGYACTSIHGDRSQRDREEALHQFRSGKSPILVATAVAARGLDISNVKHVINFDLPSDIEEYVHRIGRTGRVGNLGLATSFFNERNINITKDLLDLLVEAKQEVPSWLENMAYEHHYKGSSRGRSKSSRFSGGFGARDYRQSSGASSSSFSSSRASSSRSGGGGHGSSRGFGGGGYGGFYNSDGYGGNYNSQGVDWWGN
Chain of Bone morphogenetic protein receptor type-1B (O00238 whole entry): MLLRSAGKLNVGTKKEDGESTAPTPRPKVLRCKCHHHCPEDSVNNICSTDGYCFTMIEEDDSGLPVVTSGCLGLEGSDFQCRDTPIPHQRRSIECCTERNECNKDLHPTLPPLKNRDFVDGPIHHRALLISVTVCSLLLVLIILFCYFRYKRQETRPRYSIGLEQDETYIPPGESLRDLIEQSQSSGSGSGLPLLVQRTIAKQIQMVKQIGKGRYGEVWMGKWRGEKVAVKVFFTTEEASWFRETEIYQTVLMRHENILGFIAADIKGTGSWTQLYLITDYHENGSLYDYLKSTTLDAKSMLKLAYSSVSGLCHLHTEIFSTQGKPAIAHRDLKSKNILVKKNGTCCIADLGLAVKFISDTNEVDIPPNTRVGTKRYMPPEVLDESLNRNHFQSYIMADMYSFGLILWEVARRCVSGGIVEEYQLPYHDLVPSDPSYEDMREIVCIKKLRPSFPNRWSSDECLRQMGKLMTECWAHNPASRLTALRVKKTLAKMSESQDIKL
Chain of Casein kinase I isoform gamma-1 (Q9HCP0 whole entry, canonical isoform): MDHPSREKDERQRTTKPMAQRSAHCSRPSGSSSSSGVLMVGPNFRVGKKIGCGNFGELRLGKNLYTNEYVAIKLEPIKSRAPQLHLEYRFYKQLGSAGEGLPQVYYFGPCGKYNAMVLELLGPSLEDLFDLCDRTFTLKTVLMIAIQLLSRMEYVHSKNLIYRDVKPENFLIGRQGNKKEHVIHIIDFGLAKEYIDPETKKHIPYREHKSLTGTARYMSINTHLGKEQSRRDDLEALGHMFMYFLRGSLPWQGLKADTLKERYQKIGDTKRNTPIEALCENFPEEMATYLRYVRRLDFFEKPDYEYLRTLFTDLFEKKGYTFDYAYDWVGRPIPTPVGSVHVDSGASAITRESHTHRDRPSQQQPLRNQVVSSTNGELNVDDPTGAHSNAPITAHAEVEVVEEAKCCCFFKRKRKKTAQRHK

Regarding `COc1cc(Nc2ncc3c(n2)-c2ccc(Cl)cc2C(c2c(F)cccc2OC)=NC3)ccc1C(=O)O` [ALISERTIB], the Kd in test [1], in test [2], in test [3], in test [4], in [5] and in [6] was > 30 µM (inactive) throughout. For the same molecule, the Kd in [7], in test [8], in [9] and in [10] was > 30 µM (inactive) throughout.
Regarding `CNC(=O)c1ccccc1Sc1ccc2c(/C=C/c3ccccn3)n[nH]c2c1` [AXITINIB], the Kd in test [2], in test [3], in test [5], in test [6], in test [7] and in test [8] was > 30 µM (inactive) throughout.
With `CC(C)(C)c1nc(-c2cccc(NS(=O)(=O)c3c(F)cccc3F)c2F)c(-c2ccnc(N)n2)s1` [DABRAFENIB], the Kd in [1], in test [2], in [3], in test [4], in test [5] and in test [6] was > 30 µM (inactive) each time. In addition, the Kd in test [7] was > 30 µM (inactive); in test [11], 0.305 µM (active); in [12] it was > 30 µM (inactive); in test [8] it was 0.116 µM; in [9] it was > 30 µM (inactive); in test [10], > 30 µM (inactive).
Regarding `Cn1cc(C2=C(c3cn(C4CCN(Cc5ccccn5)CC4)c4ccccc34)C(=O)NC2=O)c2ccccc21` [ENZASTAURIN], the Kd in test [2], in test [5], in test [6], in test [7] and in test [8] was > 30 µM (inactive) in each case.
With `C[C@@H](Oc1cc(-n2cnc3ccc(CN4CCN(C)CC4)cc32)sc1C(N)=O)c1ccccc1C(F)(F)F` [GSK-461364], the Kd in [2], in [3], in [5], in test [6], in test [7] and in test [8] was > 30 µM (inactive) each time.
For the molecule `NC1(c2ccc(-c3nc4ccn5c(=O)[nH]nc5c4cc3-c3ccccc3)cc2)CCC1` [MK-2206], the Kd in test [1], in test [2], in [3], in test [4], in test [5] and in [13] was > 30 µM (inactive) each time. Also, the Kd in [6], in test [7], in test [11], in [12], in test [8] and in test [9] was > 30 µM (inactive) throughout. In addition, in test [10], the Kd is > 30 µM (inactive).
With `Cc1[nH]c(/C=C2\C(=O)Nc3ccccc32)c(C)c1CCC(=O)O` [ORANTINIB], the Kd in [1], in test [2], in test [3], in [4], in test [5] and in test [6] was > 30 µM (inactive) each time. For the same molecule, the Kd in test [7] is > 30 µM (inactive); in [11] it was > 30 µM (inactive); in test [8], > 30 µM (inactive); in test [9], 2.02 µM (active); in test [10] it was > 30 µM (inactive).
As for `NC(=O)c1c(OCc2c(F)cc(Br)cc2F)nsc1NC(=O)NCCCCN1CCCC1` [OSI-632], the Kd in test [1], in test [2], in test [3], in [5], in test [6] and in [7] was > 30 µM (inactive) in each case. The Kd in test [11], in test [8], in test [9] and in [10] was > 30 µM (inactive) each time.
For `CC(=O)NCC(=O)N1[C@@H]2CC[C@H]1c1ccc(Nc3ncc(C(F)(F)F)c(NC4CCC4)n3)cc12` [PF-03814735], the Kd is > 30 µM (inactive) in test [1]; > 30 µM (inactive) in test [2]; > 30 µM (inactive) in [3]; 0.164 µM (active) in [4]; > 30 µM (inactive) in [5]; > 30 µM (inactive) in [6]. Besides, the Kd in test [7], in test [11], in test [8], in test [9] and in [10] was > 30 µM (inactive) throughout.
`O=C(NOCCO)c1cc(CN2OCCCC2=O)c(F)c(F)c1Nc1ccc(I)cc1F` [RO-4987655]: the Kd in test [2], in [3], in test [5], in test [6], in [7] and in test [8] was > 30 µM (inactive) each time.
For `N#CC[C@H](C1CCCC1)n1cc(-c2ncnc3[nH]ccc23)cn1` [RUXOLITINIB], the Kd in [2], in [3], in [5], in test [6], in test [7] and in [8] was > 30 µM (inactive) throughout.
On to `Cn1ncc(Cl)c1-c1cc(C(=O)N[C@H](CN)Cc2ccc(F)c(F)c2)oc1Cl` [UPROSERTIB], for which the Kd in test [1], in test [2], in [3], in test [4], in test [5] and in test [13] was > 30 µM (inactive) each time. Moreover, the Kd in [6] is > 30 µM (inactive); in test [7], > 30 µM (inactive); in [11], > 30 µM (inactive); in test [12], 2.28 µM (active); in [8], > 30 µM (inactive); in test [10] it was > 30 µM (inactive).

In general, Kd refers to a measure of binding affinity in units of concentration.
